# From patent US20230181746A1, “BENZOYLHYDRAZIDE-DERIVED HDAC DEGRADERS AS THERAPEUTICS FOR TREATING CANCER AND OTHER HUMAN DISEASES” (University of Florida Research Foundation, Inc., priority 2020, published 2023)
# How the values were obtained:
# [1] = system: MDA-MB-468 cells; test: Cell viability assay (CellTiter-Glo); type: cell-based
# Protocol: MDA-MB-468, MDA-MB-231, and T47D cells were treated with the indicated compounds at different concentrations for 72 h. Cell viability was assessed with CellTiter-Glo® reagents.
# (§1) Cell lines were obtained from ATCC and subsequently authenticated. Cells were cultured with DMEM supplemented with 10% bovine calf serum, penicillin to 10 units/mL, and streptomycin to 10 μg/mL. For viability assays, 5,000 cells/well were seeded in 96-well plates. Compounds at a specified concentration or DMSO were added 24 h later. Viability assays were performed 72 h after compound addition using the CellTiter-Glo reagents (Promega). For colony formation assay, cells (˜1,000 cells/well) were seeded in a 24-well plate in quadruplicates. At 24 h after seeding, DMSO, XZ9002, or XZ9002-NC were added at a specified concentration. Medium was replaced with freshly prepared medium containing DMSO, XZ9002 or XZ9002-NC every five days until visible colonies appeared, typically in 15 to 20 days after initial cell seeding. Cells were fixed with 4% paraformaldehyde for 15 min and stained with 2% methylene blue in 20% ethanol for 30 min to 1 h. The cells were washed twice with distilled water and dried in air. For western blotting, cell cultures were exposed to compounds as indicated in relevant figures. Medium was removed from culture plate, and 1 x passive lysis buffer was then added, the plates were frozen at −80° C. overnight and thawed at room temperature. The total cell lysates were mixed with a one fifth volume of 6x SDS sample buffer, heated at 95° C. for 5 min and cooled on ice. The lysates were cleared by centrifugation and then subjected to SDS-PAGE and western blotting essentially as described. […]
# [2] = target: T1, HDAC2 (Homo sapiens, UniProt Q92769); test: In vitro HDAC activity assay (HDAC-Glo I/II), HDAC2; type: biochemical; set-up: purchased BPS Bioscience 50002; details: average of three independent assays ± standard deviation
# T1 sequence (Q92769 whole entry, the tested form may be a part): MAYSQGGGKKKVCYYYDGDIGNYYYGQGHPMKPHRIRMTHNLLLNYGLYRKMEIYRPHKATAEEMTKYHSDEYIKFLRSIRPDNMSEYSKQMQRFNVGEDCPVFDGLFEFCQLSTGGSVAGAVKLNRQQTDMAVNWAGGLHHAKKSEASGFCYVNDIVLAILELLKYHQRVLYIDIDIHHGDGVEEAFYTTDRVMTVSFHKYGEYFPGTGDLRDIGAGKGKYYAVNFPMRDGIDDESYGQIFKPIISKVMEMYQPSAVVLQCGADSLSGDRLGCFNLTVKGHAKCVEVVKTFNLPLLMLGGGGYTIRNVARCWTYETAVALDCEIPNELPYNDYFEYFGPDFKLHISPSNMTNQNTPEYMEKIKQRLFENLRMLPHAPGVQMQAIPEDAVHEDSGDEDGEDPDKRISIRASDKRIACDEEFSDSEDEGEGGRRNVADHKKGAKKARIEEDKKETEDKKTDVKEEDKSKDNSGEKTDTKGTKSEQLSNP
# Protocol: (§2) Purified HDAC1, HDAC2, and HDAC3 (in complex with the deacetylase activation domain of the human NCOR2 (amino acids 395-498)) were obtained from Enzo Life Sciences (HDAC1, catalog # BML-SE456-0050) and BPS Bioscience (HDAC2, catalog #50002 and HDAC3, catalog #50003), respectively. The enzyme activities were tested using the HDAC-Glo I/II reagents (Promega) according to a protocol provided by the manufacturer.
# [3] = target: HDAC1 (Homo sapiens, UniProt Q13547); test: In vitro HDAC activity assay (HDAC-Glo I/II), HDAC1; type: biochemical; set-up: purchased Enzo Life Sciences BML-SE456-0050; details: average of three independent assays ± standard deviation
# HDAC1, sequence (Q13547 whole entry): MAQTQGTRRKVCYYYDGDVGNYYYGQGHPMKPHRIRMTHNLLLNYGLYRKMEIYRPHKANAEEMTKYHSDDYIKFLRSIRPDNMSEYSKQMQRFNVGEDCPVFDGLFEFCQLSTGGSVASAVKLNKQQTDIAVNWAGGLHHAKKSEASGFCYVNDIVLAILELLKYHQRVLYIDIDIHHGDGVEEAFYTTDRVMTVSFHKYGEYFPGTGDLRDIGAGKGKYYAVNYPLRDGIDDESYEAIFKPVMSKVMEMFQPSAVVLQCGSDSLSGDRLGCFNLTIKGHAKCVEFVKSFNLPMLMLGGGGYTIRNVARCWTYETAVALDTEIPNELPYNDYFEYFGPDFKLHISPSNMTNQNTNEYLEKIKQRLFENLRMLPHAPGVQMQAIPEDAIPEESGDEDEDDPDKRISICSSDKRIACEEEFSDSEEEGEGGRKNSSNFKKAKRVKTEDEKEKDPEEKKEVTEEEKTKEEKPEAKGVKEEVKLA
# Protocol: as §2
# [4] = target: T2, HDAC3 (in complex with the deacetylase activation domain of the human NCOR2 (amino acids 395-498)) (Homo sapiens, UniProt O15379); test: In vitro HDAC activity assay (HDAC-Glo I/II), HDAC3; type: biochemical; details: for IC50: HDAC-Glo I/II, average of three independent assays ± standard deviation
# T2 construct: purchased BPS Bioscience 50003
# T2 sequence (O15379 whole entry, the tested form may be a part): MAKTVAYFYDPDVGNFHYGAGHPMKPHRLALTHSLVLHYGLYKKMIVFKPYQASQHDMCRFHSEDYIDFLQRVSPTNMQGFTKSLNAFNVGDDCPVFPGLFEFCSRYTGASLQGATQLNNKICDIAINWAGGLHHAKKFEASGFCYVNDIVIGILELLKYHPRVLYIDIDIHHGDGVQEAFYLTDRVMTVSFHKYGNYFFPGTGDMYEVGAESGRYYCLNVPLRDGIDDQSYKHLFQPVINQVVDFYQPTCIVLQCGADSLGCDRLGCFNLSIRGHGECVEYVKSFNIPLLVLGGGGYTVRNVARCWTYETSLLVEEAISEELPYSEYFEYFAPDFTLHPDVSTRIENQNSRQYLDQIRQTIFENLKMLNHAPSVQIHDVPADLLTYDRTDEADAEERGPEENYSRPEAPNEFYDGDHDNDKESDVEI
# T2 sequence (Q9Y618 395-498 partner limits assumed): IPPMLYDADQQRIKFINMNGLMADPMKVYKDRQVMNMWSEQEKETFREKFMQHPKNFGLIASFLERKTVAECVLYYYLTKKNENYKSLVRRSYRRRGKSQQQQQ
# Protocol: as §2
# [5] = target: HDAC3 (Homo sapiens, UniProt O15379); test: HDAC3 degradation in breast cancer cell lines, Western blot; type: cell-based; set-up: endogenous in cells; host or cells: MDA-MB-468, T47D, MCF7; details: MCF7 cells, 4 h (FIG. 8A)
# HDAC3, sequence (O15379 whole entry): as the sequence (O15379 whole entry, the tested form may be a part) above
# HDAC3, sequence (Q9Y618 395-498 partner limits assumed): as the sequence (Q9Y618 395-498 partner limits assumed) above
# Description: Data are presented as representative figures of two independent experiments.
# Cells were lysed for WB with antibodies against the indicated proteins. Antibodies against acetylated histones at specific sites (H3K27 and H4K5) and acetyl-lysine were used to assess levels of histone acetylation.
# Cells were lysed for WB. […] The indicated BC cell lines were exposed to DMSO, XZ9002, or XZ9002-NC at the indicated concentrations. Colonies were fixed and stained.
# Cell lines were obtained from ATCC and subsequently authenticated. Cells were cultured with DMEM supplemented with 10% bovine calf serum, penicillin to 10 units/mL, and streptomycin to 10 μg/mL. For viability assays, 5,000 cells/well were seeded in 96-well plates. […] For colony formation assay, cells (˜1,000 cells/well) were seeded in a 24-well plate in quadruplicates. […] Medium was replaced with freshly prepared medium containing DMSO, XZ9002 or XZ9002-NC every five days until visible colonies appeared, typically in 15 to 20 days after initial cell seeding. Cells were fixed with 4% paraformaldehyde for 15 min and stained with 2% methylene blue in 20% ethanol for 30 min to 1 h. The cells were washed twice with distilled water and dried in air. For western blotting, cell cultures were exposed to compounds as indicated in relevant figures. Medium was removed from culture plate, and 1 x passive lysis buffer was then added, the plates were frozen at −80° C. overnight and thawed at room temperature. The total cell lysates were mixed with a one fifth volume of 6x SDS sample buffer, heated at 95° C. for 5 min and cooled on ice. The lysates were cleared by centrifugation and then subjected to SDS-PAGE and western blotting essentially as described.
# [6] = target: T1, HDAC2; test: HDAC2 protein level in breast cancer cell lines, Western blot; type: cell-based; details: MCF7 cells, 4 h (FIG. 8A)
# Protocol: FIG. 3A: Western blot showing HDAC protein levels in MDA-MB-468 cells treated with the indicated concentration of XZ9002 for 14 h. FIG. 3B: pretreatment with 1 μM MG132, or 10 μM VHL032 for 1 h blocked the degradation of HDAC3 by XZ9002 {125 nM}. […] NC: XZ9002-NC. FIG. 3C: time-dependent experiment in MDA-MB-468 cells after treatment with 125 nM XZ9002 at the indicated time points. FIG. 3D: MDA-MB-468 cells were incubated with 125 nM of XZ9002 for 14 h followed by drug washout, and incubation of the cells in drug-free medium for an additional time. Data are presented as representative figures of two independent experiments.
# The culture of the triple-negative breast cancer cell line MDA-MB-468 and the ER+ breast cancer cell line T47D was exposed to vehicle control (DMSO) and the indicated compounds at specified concentrations for 14 h. Cells were lysed for WB with antibodies against the indicated proteins. Antibodies against acetylated histones at specific sites (H3K27 and H4K5) and acetyl-lysine were used to assess levels of histone acetylation. Levels of HDAC3 were normalized against that of tubulin and % of HDAC3 protein levels in cells treated with the indicated compounds relative to that in DMSO control is shown.
# FIGS. 8A-8B show the cellular activity of XZ9002. […] Cells were lysed for WB. The relative HDAC3 protein level in each sample is shown. […]
# [7] = system: non-small cell lung cancer (NSCLC) cell line H1299; test: Clonogenic growth assay, H1299; type: cell-based; details: H1299, treatment for 10 days
# Protocol: H1299 cells were exposed to DMSO, or 28c at the indicated concentrations. Colonies were fixed and stained after treatment for 10 days.
# as §1, with “temperature.” for “temperature. The total cell lysates were mixed with a one fifth volume of 6x SDS sample buffer, heated at 95° C. for 5 min and cooled on ice. The lysates were cleared by centrifugation and then subjected to SDS-PAGE and western blotting essentially as described.”
IC50 [2] [µM],IC50 [3] [µM],IC50 [4] [µM],preference for HDAC3 ([4]; against the other tested HDAC isoforms) [fold],HDAC3 degradation (in words) [5],HDAC2 degradation (in words) [6],Structure (SMILES),"antiproliferative activity (in words) ([1]; MDA-MB-468, 72 h, similar trends in MDA-MB-231 and T47D cells)","IC50 ([1]; Homo sapiens, MDA-MB-468 cell line, 72 h, CellTiter-Glo, read-out: IC50 cytotoxicity (cell viability)) [µM]",inhibition of clonogenic growth [7]
1.65 ± 0.07,0.36 ± 0.06,0.32 ± 0.03,,,,"CCCNNC(=O)c1ccc(-c2ccc(NC(=O)CCCCC(=O)N[C@H](C(=O)N3C[C@H](O)C[C@H]3C(=O)N[C@@H](C)c3ccc(-c4scnc4C)cc3)C(C)(C)C)cc2)cc1 [Compound 8b, N^1—((S)-1-((2S,4R)-4-Hydroxy-2-(((S)-1-(4-(4-methylthiazol-5-yl)phenyl)ethyl)carbamoyl)pyrrolidin-1-yl)-3,3-dimethyl-1-oxobutan-2-yl)-N^6-(4′-(2-propylhydrazine-1-carbonyl)-[1,1′-biphenyl]-4-yl)adipamide]",decreased antiproliferative activity,,
0.082 ± 0.025,0.072 ± 0.01,0.013 ± 0.001,≥ 13,does not significantly degrade,does not significantly degrade,"CCCNNC(=O)c1ccc(-c2ccc(NC(C)=O)cc2)cc1 [Compound 15, N-(4′-(2-propylhydrazine-1-carbonyl)[1,1′-biphenyl]-4-yl)acetamide]",,0.99,
,,,,,,"CCCNNC(=O)c1ccc(N2CCN(CCCCCCCC(=O)N[C@H](C(=O)N3C[C@H](O)C[C@H]3C(=O)N[C@@H](C)c3ccc(-c4scnc4C)cc3)C(C)(C)C)CC2)cc1 [Compound 28c, (2S,4R)-1-((S)-3,3-dimethyl-2-(8-(4-(4-(2-propylhydrazine-1-carbonyl)phenyl)piperazinyl)octanamido)butanoyl)-4-hydroxy-N—((S)-1-(4-(4-methylthiazol-5-yl)phenyl)ethyl)pyrrolidine carboxamide]",,,effective to inhibit clonogenic growth
